Measurements from publication PMC10126419, “pyHeart4Fish: Chamber-specific heart phenotype quantification of zebrafish in high-content screens” (Frontiers in Cell and Developmental Biology, 2023).
Entries after “also recorded” stand apart in the source; their conditions may differ. Counter-ions that a name gives are not always drawn.

Tests used:
[1] = tested on: Tg(myl7:eGFP)^twu34/+ zebrafish embryos; assay: Chamber-specific quantitative heart phenotyping with pyHeart4Fish; settings: 20 µM; for Effect on heart function / morphology: contractility, conduction, arrhythmia, HS, EF / Effect on heart rate: vs DMSO controls; for Arrhythmia / Conduction defect: number of fish;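 for all read-outs here: embryos exposed 24 h from 24 hpf in 0.2% DMSO egg water, tricaine-anaesthetised, heartbeat videos imaged at 470 nm and hearts analysed chamber by chamber from pixel-intensity beat curves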
Experimental: (§1) Embryos were dechorionated at 21 hpf using 0.22 mg/ml pronase (Merck Chemicals) for 12 min. Then, embryos were carefully washed three times with egg water and transferred into a 96-deep-well plate. After incubation at 28°C for 3 h, excess water was removed with a glass capillary and exchanged with 100 µL/well of 20 µM compound solution from the Prestwick Chemical Library (Prestwick Chemicals, France) in 0.2% DMSO (v/v) in egg water. […] Subsequently, embryos were exposed to compounds for 24 h at 28°C in the dark to enable testing of light-sensitive compounds. Solutions were removed at 48 hpf before wells containing embryos were washed three times with system water. Then, treated embryos were transferred into 12-well plates containing 1 ml 0.03% tricaine in system water (Sigma-Aldrich, Germany). Testing different concentrations (5–80 µM) of compounds and their respective controls followed the above protocol.
Oriented embryos in 96-well plates were automatically imaged using an [sequence] Imaging Machine ([sequence] Imaging, Germany) widefield microscope. Z-stacks of 10 slices (dZ = 15 µm) were acquired in brightfield (BF) and 470 nm channels with a 4×0.13 numerical aperture objective. The focal plane was detected in the 470 nm channel using a course and secondary fine software autofocus. BF integration time was fixed at 20 ms exposure time and 55% LED intensity. The exposure time for the 470 nm channel was set to 10 ms with a 10% LED intensity. Heartbeat videos of 6 s at 6 frames/second (f/s) were acquired with a time-lapse at a 0 s interval in the focus plane acquired after secondary autofocus using the previously described integration and exposure settings with a 10×0.25 numerical aperture objective.
Hearts are analyzed chamber-specifically via the user-assisted region of interest (ROI) selection. Cardiac morphology parameters (HS and shape) are extracted as the median of the first six images/frames. Raw data of heartbeat curves for the atrium and ventricle are derived from the sum of pixel intensities and normalized chamber areas. Frequencies (in s^-1) of atrium and ventricle contraction are obtained by applying sine-curve fitting or fast Fourier transformation (FFT) using the SciPy modules “optimize.curve_fit” and “fft.rfft/fft.rfftfreq”, respectively ([Virtanen et al., 2020]). Curve fitting is performed with a maximum of 30 iterations while increasing the frequencies of the fitted sine function. The best fit is selected using the correlation coefficient between the raw data and the fitted function implemented in the NumPy package. A fitted sine function and fitting score are also determined for a truncated signal (first quarter), and the best-fitted sine function is kept to account for an unstable heartbeat signal. In the case of FFT, the first harmonic of the FFT signal is used as the frequency of the atrium or ventricle contraction. Analysis with pyHeart4Fish provides heartbeat videos in GIF format, heartbeat curves as PNG/PDF files and a data sheet containing meta information and cardiac parameters.

zebrafish embryos [2] = assay: Gross morphology / development of treated zebrafish 2 dpf (brightfield); type: in vivo; settings: 20 µM; for Gross morphology / developmental and teratogenic effects: 2 dpf
Experimental: FIGURE 5 Morphology of treated zebrafish 2 dpf. An overview of the gross phenotypes of treated zebrafish 2 days post-fertilization. All compounds were dissolved in DMSO; therefore, DMSO served as the negative control. NaCl served as the salt control. The effects of atorvastatin treatment on zebrafish embryos were previously established; thus, this drug was used as a positive control for cardioactivity. The aquatic toxic compound enilconazole was used as the toxic positive control. […] The black arrow in the image of iopanoic acid-treated zebrafish embryo indicates caudal fin deformity. The scale bar indicates 500 µm in overview brightfield images and 150 µm in fluorescence images. (a) Atrium; (v) ventricle.

zebrafish embryos [3] = assay: Manually assessed pericardial edema in treated zebrafish; type: in vivo; settings: 20 µM; for Pericardial edema severity: myl7:eGFP zebrafish; for Edema: Mild / Edema: Moderate / Edema: No edema / Edema: Severe: number of fish, Tg(myl7:eGFP)
Source text: FIGURE 4 Quantitative data analysis with pyHeart4Fish. […] (A) The left graph presents the detected heart rate derived from the fast fourier transformation (FFT). […] (B) Percentual data on the severity of manually assessed pericardial edema in treated Tg(myl7:eGPF)^twu34/+ zebrafish. (C) The relative contractility derived from percentual size changes of each heart chamber (left graph). Approximate ejection fraction determined by chamber volume changes (right graph). […] The number of fish analyzed is shown in brackets after the treatment condition. Dotted gray lines indicate z-scores of ±1.96 and statistical significance with an alpha error of 5%.

zebrafish embryos [4] = assay: as above; type: in vivo; settings: 20 µM, fli1a:eGFP zebrafish
zebrafish embryos [5] = assay: Toxicity score (ToxScore) at increasing compound concentrations; settings: for ToxScore: 80 µM
Experimental: as §1
Embryos that were deceased and not intact were assigned a max. ToxScore value of 5.

zebrafish embryos [6] = settings: 71 μM, ref Yang et al., 2014; cited from earlier work
[7] = parameters: method as in Prestwick Chemical Library; settings: solvents; library annotation, ref Prestwick Chemical Library; cited from earlier work
[8] = tested on: Tg(myl7:eGFP)^twu34/+ zebrafish embryos; settings: 20 µM; for Embryos with Mobitz type II atrioventricular block (AVB): Tg(myl7:eGFP)^twu34/+, zebrafish, in vivo, 24 h
Source text: Nevertheless, it is advised that arrhythmia types are confirmed manually, as was done in this study.

[9] = tested on: Tg(fli1a:nEGFP)^y7 zebrafish embryos; assay: Primary high-content heart rate screen of the Prestwick Chemical Library (HeartBeat software v.2.1); type: in vivo; settings: Tg(fli1a:nEGFP)^y7, zebrafish, in vivo, 24 h, 20 µM
Source text: Acquired image series were preprocessed and analyzed using the previously published HeartBeat software v.2.1 and provided scripts ([Gierten et al., 2020]). For increased comparability between experiments, each quantitative HR value (beats per minute) was divided by the mean of the DMSO controls from the respective experiment. This procedure minimizes variation and creates specific fold-change values that are z-score normalized in the next step. A 90% CI was used to reduce the probability of false-negative results. Finally, data from compounds with insufficient N and known aquatic toxicity were removed.
Based on a previously established high-throughput screening pipeline, we performed a high-content drug screen in zebrafish for cardiovascular modulators ([Poureetezadi et al., 2014]; [Gierten et al., 2020]; [Westhoff et al., 2020]). […] About 98% of the library’s compounds are approved by the Food and Drug Administration (FDA), European Medicines Agency (EMA) or other regulatory agencies. The drug library was screened at a concentration of 20 µM for 24 h until 48 hpf using the transgenic zebrafish line Tg(fli1a:nEGFP)^y7. Subsequently, BF images and videos were captured at 2 dpf to assess gross morphology. HR was analyzed with the previously published tool HeartBeat (v.2.1) to identify potential hit compounds. A 90% CI threshold for effect sizes of ±1.64 was used to reduce false-negative results. […] The Open Targets platform and the Mayo Clinic Drugs and Supplements Database were systematically searched for compound names and common synonyms ([Drugs and Supplements, 2022]; [Open Targets, 2022]). The Medical Subject Headings (MeSH) terms “compound name” and “heart rate” were applied to NCBI PubMed literature research before the first five pages of publications sorted by relevance were screened for relevant information. Furthermore, compounds were filtered for unknown targets (n = 3), FDA black box warning (n = 6) and aquatic toxicity (n = 4). […] Therefore, compounds with n < 3 were excluded (n = 7).

[10] = parameters: method as in Prestwick Chemical Library; settings: library annotation, ref Prestwick Chemical Library; cited from earlier work

| Compound | Effect on heart function / morphology: contractility, conduction, arrhythmia, HS, EF [1] | Effect on heart rate [1] | Arrhythmia [1] | Conduction defect [1] | Gross morphology / developmental and teratogenic effects (zebrafish embryos [2]) | Edema: Mild (zebrafish embryos [3]) | Edema: Moderate (zebrafish embryos [3]) | Edema: No edema (zebrafish embryos [3]) | Edema: Severe (zebrafish embryos [3]) | Lit. Solubility [7] | also measured |
| --- | --- | --- | --- | --- | --- | --- | --- | --- | --- | --- | --- |
| OCCN1CCN(CCCN2c3ccccc3C=Cc3ccccc32)CC1 [Opipramol diHCl] | do not induce arrhythmia | did not affect HR | 1 | 0 | mild developmental delay | 5 | 0 | 0 | 0 | – | Effect on heart function / morphology: contractility, conduction, arrhythmia, HS, EF ([1]; listed as OPI): significantly reduced relative ventricular contractility; Pericardial edema severity (zebrafish embryos [3]): mild edema |
| CCC(Cc1c(I)cc(I)c(N)c1I)C(=O)O (stereo not drawn) [Iopanoic acid] | Contractility, HS and EF were not affected | – | 0 | 0 | – | 2 | 1 | 1 | 0 | – | Pericardial edema severity (zebrafish embryos [4]): moderate edema; ToxScore (zebrafish embryos [5]): 4.4; Gross morphology / developmental and teratogenic effects (zebrafish embryos [2]; listed as IOP): developmental delay; also recorded: caudal fin deformities; Pericardial edema severity (zebrafish embryos [3]): mild edema |
| C[C@@H]1C[C@@H]([C@H](O)CC2CC(=O)NC(=O)C2)C(=O)[C@@H](C)C1 [Cycloheximide] | – | – | 3 | 0 | – | 0 | 3 | 1 | 3 | – | Effect on ventricular volume (zebrafish embryos [6]): decreased ventricular volume; Concentration-dependent toxic effects (zebrafish embryos [5]; 5–80 µM): doses higher than 40 µM induced cardiac arrest and severe pericardial edema; Gross morphology / developmental and teratogenic effects (zebrafish embryos [2]; listed as CHX): bent tails; also recorded: development was delayed; Pericardial edema severity (zebrafish embryos [3]): moderate to severe pericardial edema |
| Oc1ccc(OCc2ccccc2)cc1 [Monobenzone] | did not cause any other alterations to heart phenotypes | – | 3 | 0 | caused depigmentation without delaying development | 3 | 2 | 3 | 2 | – | ToxScore (zebrafish embryos [5]): ≤ 2.5 |
| C=CCOC(Cn1ccnc1)c1ccc(Cl)cc1Cl (stereo not drawn) [Enilconazole, enilconazole] | – | significantly reduced HR | 1 | 0 | inhibited pigmentation | 2 | 0 | 3 | 0 | – | Concentration-dependent toxic effects (zebrafish embryos [5]; 5–80 µM): dose-dependent; Treated fish with developmental delays (zebrafish embryos [2]; both zebrafish lines): 100% |
| CN(C)CCN(Cc1cccs1)c1ccccn1 [Methapyrilene HCl, methapyrilene HCl] | – | decreased HR | 2 | 2 | – | 1 | 2 | 1 | 1 | H2O, EtOH, CHCl3 | Embryos with Mobitz type II atrioventricular block (AVB) [8]: 50%; Z-score Heart rate [9]: -2.21 z-score |
| CC(=O)[C@H]1CC[C@H]2[C@@H]3CC=C4C[C@@H](O)CC[C@]4(C)[C@H]3CC[C@]12C [Pregnenolone] | – | – | 1 | 1 | teratogenic effects | 1 | 3 | 0 | 1 | – | Effect on heart function / morphology: contractility, conduction, arrhythmia, HS, EF ([1]; listed as P5): relative contractility of both heart chambers was affected by impaired contraction; also recorded: HS and morphology were not affected; Pericardial edema severity (zebrafish embryos [3]): moderate to severe pericardial and yolk edema |
| COc1ccc(CCN2CCC(Nc3nc4ccccc4n3Cc3ccc(F)cc3)CC2)cc1 [Astemizole] | – | – | – | – | – | – | – | – | – | CH2Cl2, MeOH | Z-score Heart rate [9]: -7.189 z-score; Metabolism: tissue [10]: Liver |
| CN(C)CCN(Cc1ccc(Cl)cc1)c1ccccn1 [Chloropyramine HCl, chloropyramine HCl] | a slower HR in the ventricle than in the atrium | decreased HR | 0 | 2 | – | 4 | 7 | 0 | 0 | DMSO | Embryos with Mobitz type II atrioventricular block (AVB) [8]: 18.2%; Z-score Heart rate [9]: -2.971 z-score; ToxScore (zebrafish embryos [5]): 4.8 |
| N=C(N)c1ccc(OCCCCCOc2ccc(C(=N)N)cc2)cc1 [Pentamidine isethionate] | – | – | 1 | 0 | did not reveal teratogenic effects | 4 | 0 | 4 | 0 | – | – |
| Cc1cccc(CN2CCN(C(c3ccccc3)c3ccc(Cl)cc3)CC2)c1.Cl.Cl (stereo not drawn) [Meclozine dihydrochloride] | – | – | – | – | – | – | – | – | – | CHCl3, pyridine | Metabolism: tissue [10]: Liver |
| CNCC[C@@H](Oc1cccc2ccccc12)c1cccs1 [(R)-Duloxetine HCl] | – | not significantly decreased | 0 | 2 | – | 1 | 3 | 0 | 2 | – | Treated embryos with atrial flutter [8]: 33%; Fraction of embryos with atrial flutter ([8]; manual analysis of heartbeat videos): one-third; Concentration-dependent toxic effects (zebrafish embryos [5]; 5–80 µM, listed as DLX): dose-dependently increased the ToxScore; also recorded: complete lethality at 80 µM |
| Cc1cc(/C=C/c2ccc3cc(N(C)C)ccc3[n+]2C)c(C)n1-c1ccccc1 [Pyrvinium pamoate] | did not affect relative contractility, conduction, and HS | – | 1 | 0 | no teratogenic effects | 1 | 0 | 4 | 0 | – | – |
| CN(C)CCN(Cc1ccccc1)c1ccccn1 [Tripelennamine HCl, tripelennamine HCl] | – | decreased HR | 0 | 0 | development was not delayed | 4 | 5 | 2 | 0 | DMSO | Z-score Heart rate [9]: -2.358 z-score; ToxScore, highest over tested concentrations (zebrafish embryos [5]; 5–80 µM): ≤ 2.6 |
